Results: article PMC9402538, “Rational design of a sensitivity-enhanced tracer for discovering efficient APC–Asef inhibitors” (Nature Communications, 2022)
Where two headings read alike, the source gives them in different places. Where a SMILES comes first, the peptide text is derived from it. [ ]: non-standard residue; d: D form. The star is where a group is joined. Ala(cPent) = N[C@@H](CC1CCCC1)C(=O)O; Benzoyl(4-OMe) = COc1ccc(C(=O)*)cc1

Target: T1, APC (303–739) (Homo sapiens, UniProt P25054)
T1 sequence (P25054 303-739): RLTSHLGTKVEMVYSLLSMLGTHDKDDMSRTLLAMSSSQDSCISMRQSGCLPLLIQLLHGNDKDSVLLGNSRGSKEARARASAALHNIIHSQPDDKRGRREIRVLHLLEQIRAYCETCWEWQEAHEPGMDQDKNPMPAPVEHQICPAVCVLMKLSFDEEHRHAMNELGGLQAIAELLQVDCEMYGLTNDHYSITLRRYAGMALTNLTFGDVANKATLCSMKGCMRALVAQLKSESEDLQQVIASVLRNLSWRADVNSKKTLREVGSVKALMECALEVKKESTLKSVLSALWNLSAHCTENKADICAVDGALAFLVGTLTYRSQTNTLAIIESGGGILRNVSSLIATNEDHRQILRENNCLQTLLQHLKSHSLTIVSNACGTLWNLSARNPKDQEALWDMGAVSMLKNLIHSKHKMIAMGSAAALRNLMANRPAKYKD
Test: FP competitive assay using tracer 7
Type: binding
Settings: for IC50: tracer 7
In short: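 Peptide dilutions were first incubated 1 h at room temperature with APC (303–739) in HEPES pH 7.5 buffer containing 300 mM NaCl, EDTA and DTT. Added FITC tracer 7 (400 nM stock) displaced over a further 1.5 h before polarization reading. IC50 values came from nonlinear regression fits of triplicate data.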

[1] = Conc. 4 μM, individual repeats, Fig3b

For `COc1ccc(C(=O)N[C@@H](C)C(=O)NCC(=O)N[C@@H](CCC(=O)O)C(=O)N[C@@H](CO)C(=O)N[C@@H](CC2CCCC2)C(=O)N[C@@H](Cc2ccc(O)cc2)C(=O)N[C@@H](CCC(=O)O)C(N)=O)cc1` [MAI-519] ({Benzoyl(4-OMe)}-AGES[Ala(cPent)]YE-NH2), the inhibition at 0.001 µM (Conc. 0.001 μM, individual repeats, Fig3b, read-out: %inhibition) was 1.6%, the “%inhibition” value (Conc. 0.002 μM, individual repeats, Fig3b) was 2.6% and the inhibition at 0.002 µM (Conc. 0.002 μM, individual repeats, Fig3b, read-out: %inhibition) was 2.9%. For the same molecule, the “%inhibition” value (Conc. 0.0039 μM, individual repeats, Fig3b) was 5.4%, the inhibition at 0.0039 µM (Conc. 0.0039 μM, individual repeats, Fig3b, read-out: %inhibition) was 4.1% and the inhibition at 0.006 µM (Conc. 0.006 μM, individual repeats, Fig3b, read-out: %inhibition) was 4.4%. For the same molecule, the “%inhibition” value (Conc. 0.0078 μM, individual repeats, Fig3b) was 13.3%, the inhibition at 0.0078 µM (Conc. 0.0078 μM, individual repeats, Fig3b, read-out: %inhibition) was 8.8% and the inhibition at 0.012 µM (Conc. 0.012 μM, individual repeats, Fig3b, read-out: %inhibition) was 16.9%. For the same molecule, the “%inhibition” value (Conc. 0.0156 μM, individual repeats, Fig3b) was 35%, the inhibition at 0.0156 µM (Conc. 0.0156 μM, individual repeats, Fig3b, read-out: %inhibition) was 24% and the inhibition at 0.024 µM (Conc. 0.024 μM, individual repeats, Fig3b, read-out: %inhibition) was 38.4%. For the same molecule, the “%inhibition” value (Conc. 0.0313 μM, individual repeats, Fig3b) was 59%, the inhibition at 0.0313 µM (Conc. 0.0313 μM, individual repeats, Fig3b, read-out: %inhibition) was 51.7% and the inhibition at 0.049 µM (Conc. 0.049 μM, individual repeats, Fig3b, read-out: %inhibition) was 60.2%. For the same molecule, the “%inhibition” value (Conc. 0.0625 μM, individual repeats, Fig3b) was 74.1%, the inhibition at 0.0625 µM (Conc. 0.0625 μM, individual repeats, Fig3b, read-out: %inhibition) was 71.7% and the inhibition at 0.098 µM (Conc. 0.098 μM, individual repeats, Fig3b, read-out: %inhibition) was 77.7%. The “%inhibition” value (Conc. 0.125 μM, individual repeats, Fig3b) was 86.1%, the inhibition at 0.125 µM (Conc. 0.125 μM, individual repeats, Fig3b, read-out: %inhibition) was 85.5% and the inhibition at 0.195 µM (Conc. 0.195 μM, individual repeats, Fig3b, read-out: %inhibition) was 89%. For the same molecule, the “%inhibition” value (Conc. 0.25 μM, individual repeats, Fig3b) was 91.7%, the inhibition at 0.25 µM (Conc. 0.25 μM, individual repeats, Fig3b, read-out: %inhibition) was 92.8% and the inhibition at 0.391 µM (Conc. 0.391 μM, individual repeats, Fig3b, read-out: %inhibition) was 94.2%. For the same molecule, the “%inhibition” value (Conc. 0.5 μM, individual repeats, Fig3b) was 95.8%, the inhibition at 0.5 µM (Conc. 0.5 μM, individual repeats, Fig3b, read-out: %inhibition) was 96.7% and the inhibition at 0.781 µM (Conc. 0.781 μM, individual repeats, Fig3b, read-out: %inhibition) was 97.3%. For the same molecule, the “%inhibition” value (Conc. 1 μM, individual repeats, Fig3b) was 97.7%, the inhibition at 1 µM (Conc. 1 μM, individual repeats, Fig3b, read-out: %inhibition) was 98.4% and the inhibition at 1.563 µM (Conc. 1.563 μM, individual repeats, Fig3b, read-out: %inhibition) was 98.1%. The inhibition at 2 µM (Conc. 2 μM, individual repeats, Fig3b, read-out: %inhibition) was 99.3%, the inhibition at 3.125 µM (Conc. 3.125 μM, individual repeats, Fig3b, read-out: %inhibition) was 98.9% and the “%inhibition” value [1] was 98.8%. It also gave an inhibition at 4 µM [1] of 99%, an inhibition at 6.25 µM (Conc. 6.25 μM, individual repeats, Fig3b, read-out: %inhibition) of 99.5% and an inhibition at 8 µM (Conc. 8 μM, individual repeats, Fig3b) of 99%. It also gave an inhibition at 12.5 µM (Conc. 12.5 μM, individual repeats, Fig3b, read-out: %inhibition) of 97.6%, an inhibition at 25 µM (Conc. 25 μM, individual repeats, Fig3b, read-out: %inhibition) of 97.6% and an inhibition at 50 µM (Conc. 50 μM, individual repeats, Fig3b, read-out: %inhibition) of 97.6%. The “mean (FP signal, FigS5)” value (Repeat 1, Conc. 0.006 μM) was 284.3, the “mean (FP signal, FigS5)” value (Repeat 1, Conc. 0.012 μM) was 253.5 and the “mean (FP signal, FigS5)” value (Repeat 1, Conc. 0.024 μM) was 200.3. The “mean (FP signal, FigS5)” value (Repeat 1, Conc. 0.049 μM) was 146.3, the “mean (FP signal, FigS5)” value (Repeat 1, Conc. 0.098 μM) was 103 and the “mean (FP signal, FigS5)” value (Repeat 1, Conc. 0.195 μM) was 75. The “mean (FP signal, FigS5)” value (Repeat 1, Conc. 0.391 μM) was 62, the “mean (FP signal, FigS5)” value (Repeat 1, Conc. 0.781 μM) was 54.3 and the “mean (FP signal, FigS5)” value (Repeat 1, Conc. 1.563 μM) was 52.3. For the same molecule, the “mean (FP signal, FigS5)” value (Repeat 1, Conc. 3.125 μM) was 50.3, the “mean (FP signal, FigS5)” value (Repeat 1, Conc. 6.25 μM) was 49 and the “mean (FP signal, FigS5)” value (Repeat 1, Conc. 12.5 μM) was 53.7. For the same molecule, the “mean (FP signal, FigS5)” value (Repeat 1, Conc. 25 μM) was 53.7, the “mean (FP signal, FigS5)” value (Repeat 1, Conc. 50 μM) was 53.7 and the “mean (FP signal, FigS5)” value (Repeat 2, Conc. 0.001 μM) was 301. The “mean (FP signal, FigS5)” value (Repeat 2, Conc. 0.002 μM) was 297.7, the “mean (FP signal, FigS5)” value (Repeat 2, Conc. 0.0039 μM) was 294.7 and the “mean (FP signal, FigS5)” value (Repeat 2, Conc. 0.0078 μM) was 282.7. For the same molecule, the “mean (FP signal, FigS5)” value (Repeat 2, Conc. 0.0156 μM) was 244, the “mean (FP signal, FigS5)” value (Repeat 2, Conc. 0.0313 μM) was 173.3 and the “mean (FP signal, FigS5)” value (Repeat 2, Conc. 0.0625 μM) was 122.3. The “mean (FP signal, FigS5)” value (Repeat 2, Conc. 0.125 μM) was 87.3, the “mean (FP signal, FigS5)” value (Repeat 2, Conc. 0.25 μM) was 68.7 and the “mean (FP signal, FigS5)” value (Repeat 2, Conc. 0.5 μM) was 58.7. For the same molecule, the “mean (FP signal, FigS5)” value (Repeat 2, Conc. 1 μM) was 54.3, the “mean (FP signal, FigS5)” value (Repeat 2, Conc. 2 μM) was 52 and the “mean (FP signal, FigS5)” value (Repeat 2, Conc. 4 μM) was 53. For the same molecule, the “mean (FP signal, FigS5)” value (Repeat 2, Conc. 8 μM) was 53, the “mean (FP signal, FigS5)” value (Repeat 3, Conc. 0.001 μM) was 292.7 and the “mean (FP signal, FigS5)” value (Repeat 3, Conc. 0.002 μM) was 290.3. The “mean (FP signal, FigS5)” value (Repeat 3, Conc. 0.0039 μM) was 283.3, the “mean (FP signal, FigS5)” value (Repeat 3, Conc. 0.0078 μM) was 264 and the “mean (FP signal, FigS5)” value (Repeat 3, Conc. 0.0156 μM) was 211. For the same molecule, the “mean (FP signal, FigS5)” value (Repeat 3, Conc. 0.0313 μM) was 152, the “mean (FP signal, FigS5)” value (Repeat 3, Conc. 0.0625 μM) was 115 and the “mean (FP signal, FigS5)” value (Repeat 3, Conc. 0.125 μM) was 85.7. The “mean (FP signal, FigS5)” value (Repeat 3, Conc. 0.25 μM) was 72, the “mean (FP signal, FigS5)” value (Repeat 3, Conc. 0.5 μM) was 62 and the “mean (FP signal, FigS5)” value (Repeat 3, Conc. 1 μM) was 57.3. The “mean (FP signal, FigS5)” value (Repeat 3, Conc. 2 μM) was 56.3, the “mean (FP signal, FigS5)” value (Repeat 3, Conc. 4 μM) was 54.7 and the “mean (FP signal, FigS5)” value (Repeat 3, Conc. 8 μM) was 53.3. The IC50 (mean of three repeats, read-out: IC50 mean) was 25.1 nM, the IC50 (read-out: IC50 Repeat 1) was 23 nM and the IC50 (read-out: IC50 Repeat 2) was 29.6 nM. For the same molecule, the IC50 (read-out: IC50 Repeat 3) was 22.7 nM.
